# From patent US20080076927A1, “Synthetic Methods and Intermediates for Stereoisomeric Compounds Useful for the Treatment of Gastrointestinal and Central Nervous System Disorders” (ARYx Therapeutics, Inc., priority 2005, published 2008)
# Like-named read-outs stand apart in the source and are kept apart here.
# Legend:
# 5-HT4 Receptor [1] = molecular target: T1, 5-HT4 Receptor (Cavia porcellus, UniProt O70528); assay: 5-HT4 Receptor Binding, Guinea Pig Striatum, [3H]GR113808; parameters: Guinea Pig Striatum; from tissue; host or cells: guinea pig striatum; settings: for nH, Hill coefficient: Guinea Pig Striatum
# [2] = tested on: isolated, perfused guinea pig hearts
# 2D6 = 2D6 (Homo sapiens, UniProt P10635)
# 2C9 = 2C9 (Homo sapiens, UniProt P11712)
# [3] = type: in vitro ADME, human; settings: for dependence of metabolism on NADPH / CYP450: microsomes
# Description: ATI-7505 (2 μM) was incubated with human microsomal protein (1 mg) in the presence or absence of NADPH regenerating system (cofactor).
# Thus the major biotransformation pathway for ATI-7505 occurs independently of CYP450 enzymes.
# The metabolism of these compounds was studied in pooled human microsomes in the presence and absence of the Cytochrome P-450 cofactor NADPH and both the disappearance of parent and the appearance of the corresponding acid metabolite, i.e., the corresponding compound-II isomer, monitored with time.
# In this experiment, the amount of substrate (compounds III, IV, V, and VI) remaining in the reaction after 5, 60, and 90 minutes were evaluated by a tandem HPLC-MS method. This remaining amount was correlated with the appearance of the metabolite compound II.
# [4] = Metabolism in Fresh Human Blood; type: in vitro ADME; settings: fresh heparinized human blood, 37° C., read-out: Half-life
# Description: Fresh blood was collected into heparinized tubes from 3 human donors and blood was stored on ice until incubation. Separate aliquots of blood from each donor were pipetted into 1.5 mL centrifuge tubes and the tubes were pre-incubated in a shaking water bath at 37° C. for 5 minutes. The reaction was initiated by the addition of 10 μL of the appropriate test compound stock to each tube (final concentration=100 μM). Incubations were quenched after 0, 5, 15, 30 and 60 minutes, by the addition of acetonitrile ([…]), centrifuged at 12,000 rpm for 2 minutes and the supernatant analyzed on an Agilent 1100 HPLC system. Separations were accomplished on a Keystone Intersil ODS2, 250×4.6 mm, […] column. The aqueous mobile phase consisted of 20 mM ammonium acetate buffer (pH 5.7) and the organic phase acetonitrile. A gradient was used: initial condition consisted of 20% acetonitrile for 1 minute. […] The system was then recycled to initial conditions over the course of 1 minute and held there for 4 minutes before the next injection. […] The results were expressed as amount of initial compound remaining and data subjected to kinetic analysis using WinNonLin. The half-lives for the individual compounds are given below in Table 6.
# [5] = molecular target: T2, human IKr (HERG K+ channels) (Homo sapiens, UniProt Q12809); assay: whole cell patch-clamp of IKr in HEK-293 cells expressing the HERG K+ channels; type: cell-based
# T2 construct: expressed in transfected cells; host or cells: HEK-293
# Description: The test system was mammalian HEK-293 cells expressing the HERG K+ channels, in which the potassium current was measured by whole cell patch-clamp technique.
# fed dogs = assay: gastric emptying in fed conscious dogs (time of MMC return); settings: IV infusion over 20 minutes before a solid meal
# Description: The data shown are normalized to the averaged vehicle control times of MMC return values.
# The objective of the experiments was to measure the time required for migrating motor contractions (MMCs) to return to baseline following ingestion of a solid meal. A drug-induced shortening of MMC return time indicated an early end of the digestive period due to accelerated gastric emptying. […] At the end of the drug infusion, the dogs were fed a meal. Gut contractions were recorded for a minimum of 60 minutes prior to the start of the drug infusion to establish the fasting state and to identify the onset of MMC in the duodenum, and at least 30 minutes after the return of MMC in the duodenum. Quantitative comparisons of the treatments were based on the time of MMC return as an index of gastric emptying following ingestion of a solid meal.
# [6] = tested on: esterases in human plasma
# CYP3A4 = CYP3A4 (Homo sapiens, UniProt P08684); settings: recombinant enzyme
# fasted, conscious dogs = settings: for antral and small bowel contractility, colonic motor activity / prokinetic effects in the dog gut: IV and PO; for migrating motor complex (MMC) characteristics: antrum, proximal, mid and distal small intestine
# 5-HT4 Receptor [7] = molecular target: T1, 5-HT4 Receptor; assay: 5-HT4 receptor binding of the isomers of compound I, radiolabel displacement method; settings: read-out: binding constant Ki
# human 5-HT4 receptor = molecular target: T3, human 5-HT4 receptor (Homo sapiens, UniProt Q13639); assay: adenylyl cyclase stimulation in cells engineered to stably express human 5-HT4 receptor; type: cell-based; settings: for Efficacy % of 5HT (serotonin): estimated Emax relative to 5-HT
# T3 construct: expressed in transfected cells
# From the text: ARYx performed in vitro assays based on adenylyl cyclase stimulation in cells engineered to stably express human 5-HT4 receptor. […] [table]
# [8] = July 1993 to December 1999; cited from earlier work
# [9] = in vivo; cited from earlier work
# [10] = tested at 10, 100, 1,000, and 10,000 nM
# T1 sequence (O70528 whole entry, the tested form may be a part): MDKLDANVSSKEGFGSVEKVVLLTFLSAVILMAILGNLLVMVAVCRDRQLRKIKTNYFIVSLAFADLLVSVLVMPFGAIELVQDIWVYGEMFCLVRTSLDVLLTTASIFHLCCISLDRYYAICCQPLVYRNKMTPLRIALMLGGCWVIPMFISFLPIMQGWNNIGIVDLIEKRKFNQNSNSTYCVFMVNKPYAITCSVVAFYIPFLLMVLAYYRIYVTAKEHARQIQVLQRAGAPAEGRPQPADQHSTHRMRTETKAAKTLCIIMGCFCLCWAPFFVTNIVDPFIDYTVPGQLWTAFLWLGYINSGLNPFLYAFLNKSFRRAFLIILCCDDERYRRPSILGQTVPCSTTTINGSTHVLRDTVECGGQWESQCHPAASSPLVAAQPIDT
# T2 sequence (Q12809 whole entry): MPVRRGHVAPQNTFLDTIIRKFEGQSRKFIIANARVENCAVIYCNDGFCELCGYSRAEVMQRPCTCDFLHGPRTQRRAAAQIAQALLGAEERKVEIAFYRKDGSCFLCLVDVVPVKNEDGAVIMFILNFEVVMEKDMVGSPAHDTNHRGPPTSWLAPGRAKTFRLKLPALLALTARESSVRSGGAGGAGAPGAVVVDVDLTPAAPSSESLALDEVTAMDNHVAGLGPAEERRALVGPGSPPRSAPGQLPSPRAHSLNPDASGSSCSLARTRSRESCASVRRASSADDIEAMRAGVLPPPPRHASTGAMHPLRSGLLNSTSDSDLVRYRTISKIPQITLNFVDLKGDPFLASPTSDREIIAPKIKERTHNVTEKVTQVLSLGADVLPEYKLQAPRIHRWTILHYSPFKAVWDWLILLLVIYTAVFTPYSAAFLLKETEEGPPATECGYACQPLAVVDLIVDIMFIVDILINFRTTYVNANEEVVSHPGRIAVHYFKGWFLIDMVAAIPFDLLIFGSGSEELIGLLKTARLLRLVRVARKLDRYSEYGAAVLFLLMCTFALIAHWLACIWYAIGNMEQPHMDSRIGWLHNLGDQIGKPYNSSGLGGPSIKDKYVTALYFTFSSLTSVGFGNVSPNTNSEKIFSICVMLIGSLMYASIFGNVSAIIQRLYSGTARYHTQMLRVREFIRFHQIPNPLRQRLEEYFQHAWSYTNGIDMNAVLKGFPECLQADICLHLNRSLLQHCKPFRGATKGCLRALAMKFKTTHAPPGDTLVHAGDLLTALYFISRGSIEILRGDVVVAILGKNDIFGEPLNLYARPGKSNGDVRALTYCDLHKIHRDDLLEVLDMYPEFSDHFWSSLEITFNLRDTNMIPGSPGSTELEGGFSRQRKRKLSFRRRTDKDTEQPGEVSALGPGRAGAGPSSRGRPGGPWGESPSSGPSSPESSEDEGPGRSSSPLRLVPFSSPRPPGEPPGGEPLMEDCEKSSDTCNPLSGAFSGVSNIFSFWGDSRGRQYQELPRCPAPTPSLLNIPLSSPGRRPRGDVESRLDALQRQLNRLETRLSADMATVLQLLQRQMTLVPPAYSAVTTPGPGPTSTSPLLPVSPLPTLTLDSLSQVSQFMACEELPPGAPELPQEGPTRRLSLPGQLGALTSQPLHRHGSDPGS
# T3 sequence (Q13639 whole entry): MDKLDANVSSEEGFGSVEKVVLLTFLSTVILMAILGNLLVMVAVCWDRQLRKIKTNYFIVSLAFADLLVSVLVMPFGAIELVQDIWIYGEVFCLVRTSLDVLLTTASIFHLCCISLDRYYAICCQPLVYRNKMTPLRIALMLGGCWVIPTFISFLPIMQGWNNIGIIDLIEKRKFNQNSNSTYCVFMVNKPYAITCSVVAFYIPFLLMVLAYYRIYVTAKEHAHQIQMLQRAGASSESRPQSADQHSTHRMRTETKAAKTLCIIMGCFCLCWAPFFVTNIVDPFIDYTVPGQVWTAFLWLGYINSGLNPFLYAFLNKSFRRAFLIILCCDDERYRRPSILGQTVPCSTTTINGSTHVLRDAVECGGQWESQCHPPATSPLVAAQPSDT
# 2D6, sequence (P10635 whole entry): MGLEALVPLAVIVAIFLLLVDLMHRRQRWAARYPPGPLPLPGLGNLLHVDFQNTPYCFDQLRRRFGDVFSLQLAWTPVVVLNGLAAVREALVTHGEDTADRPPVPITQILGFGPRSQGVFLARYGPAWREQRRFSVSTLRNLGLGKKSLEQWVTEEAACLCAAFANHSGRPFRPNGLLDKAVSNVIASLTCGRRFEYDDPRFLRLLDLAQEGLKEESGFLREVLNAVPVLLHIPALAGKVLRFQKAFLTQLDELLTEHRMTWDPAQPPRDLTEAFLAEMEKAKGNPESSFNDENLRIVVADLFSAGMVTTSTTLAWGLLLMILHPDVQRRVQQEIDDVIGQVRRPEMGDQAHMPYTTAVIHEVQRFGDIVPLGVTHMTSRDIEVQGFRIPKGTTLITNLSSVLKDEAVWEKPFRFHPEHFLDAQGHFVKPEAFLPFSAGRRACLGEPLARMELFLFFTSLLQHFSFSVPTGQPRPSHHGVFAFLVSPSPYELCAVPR
# 2C9, sequence (P11712 whole entry): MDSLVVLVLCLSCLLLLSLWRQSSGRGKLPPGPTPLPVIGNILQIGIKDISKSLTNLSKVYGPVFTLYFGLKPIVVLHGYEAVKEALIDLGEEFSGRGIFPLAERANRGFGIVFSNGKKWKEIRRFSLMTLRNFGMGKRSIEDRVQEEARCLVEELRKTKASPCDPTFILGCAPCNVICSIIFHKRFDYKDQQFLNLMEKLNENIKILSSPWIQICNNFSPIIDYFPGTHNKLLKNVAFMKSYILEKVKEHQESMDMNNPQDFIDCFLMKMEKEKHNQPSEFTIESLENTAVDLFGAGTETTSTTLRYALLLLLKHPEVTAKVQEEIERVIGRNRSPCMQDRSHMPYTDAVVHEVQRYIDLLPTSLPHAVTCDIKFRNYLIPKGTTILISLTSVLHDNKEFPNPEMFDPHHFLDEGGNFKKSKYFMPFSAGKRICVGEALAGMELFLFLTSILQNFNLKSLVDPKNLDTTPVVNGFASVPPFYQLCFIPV
# CYP3A4, sequence (P08684 whole entry): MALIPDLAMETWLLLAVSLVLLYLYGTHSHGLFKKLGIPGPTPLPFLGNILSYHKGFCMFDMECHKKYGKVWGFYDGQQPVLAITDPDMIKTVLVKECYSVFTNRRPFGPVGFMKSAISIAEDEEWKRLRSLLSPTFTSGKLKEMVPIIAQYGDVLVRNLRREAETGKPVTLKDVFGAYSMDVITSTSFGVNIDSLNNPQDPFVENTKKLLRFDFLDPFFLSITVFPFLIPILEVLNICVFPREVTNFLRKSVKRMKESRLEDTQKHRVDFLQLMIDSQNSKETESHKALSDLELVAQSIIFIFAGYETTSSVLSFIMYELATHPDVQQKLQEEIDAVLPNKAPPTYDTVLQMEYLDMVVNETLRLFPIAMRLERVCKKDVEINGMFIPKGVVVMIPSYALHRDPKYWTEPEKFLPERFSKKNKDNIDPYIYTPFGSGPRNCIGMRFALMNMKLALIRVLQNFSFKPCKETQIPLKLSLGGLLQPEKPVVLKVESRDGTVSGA
smiles,measurement,setting,value
"COc1cc(N)c(Cl)cc1C(=O)N[C@@H]1CCN(CCCCCC(=O)O[C@H]2CN3CCC2CC3)C[C@@H]1OC [ATI-7505, (R)-quinuclidin-3-yl 6-((3S,4R)-4-(4-amino-5-chloro-2-methoxybenzamido)-3-methoxypiperidin-1-yl)hexanoate]",IC50,5-HT4 Receptor [1],8.3 nM
same,Ki,5-HT4 Receptor [1],1.4 nM
same,"nH, Hill coefficient",5-HT4 Receptor [1],0.7
same,"affinity for the 5-HT4 receptor, fold greater than cisapride",5-HT4 Receptor [1]; versus cisapride,18 fold
same,"affinity for the 5-HT4 receptor, fold greater than the major metabolite, the carboxylic acid",5-HT4 Receptor [1]; versus major metabolite of ATI-7505,at least 360 fold
same,modulation of cardiac electrophysiologic parameters,[2],very weak modulator of cardiac electrophysiologic parameters
same,"No Observed Effect Level (NOEL), Combined Parameters",[2]; combined set of 6 cardiac parameters,"1,000 nM"
same,"No Observed Effect Level (NOEL), AH Interval",[2]; [10],">10,000 nM"
same,"No Observed Effect Level (NOEL), HV Interval",[2]; [10],"1,000 nM"
same,"No Observed Effect Level (NOEL), MAPD90",[2]; [10],"1,000 nM"
same,"No Observed Effect Level (NOEL), QRS Interval",[2]; [10],">10,000 nM"
same,"No Observed Effect Level (NOEL), QT Interval",[2]; [10],"1,000 nM"
same,"No Observed Effect Level (NOEL), SA Interval",[2]; [10],">10,000 nM"
same,inhibitory activity against 2D6,2D6; human,"Neither ATI-7505 nor its primary metabolite, ATI-7500 displayed significant inhibitory activity"
same,inhibitory activity against 2C9,2C9,"Neither ATI-7505 nor its primary metabolite, ATI-7500 displayed significant inhibitory activity"
same,hydrolysis by esterase in human microsomes,[3],rapidly hydrolyzed by esterase
same,biotransformation in pooled human microsomes,"[3]; human, 2 µM","undergoes biotransformation to a single metabolite, ATI-7500"
same,dependence of metabolism on NADPH / CYP450,[3]; human,not dependent on CYP450
same,dependence of metabolism on NADPH / CYP450,[3],not dependent on the presence of NADPH
same,half-life at 100 µM,"[4]; Mean ± SD of 3 subjects, 100 μM",8.59 ± 0.077 min
same,half-life at 100 µM,"[4]; Subject 1, 100 μM",8.47 min
same,half-life at 100 µM,"[4]; Subject 2, 100 μM",8.61 min
same,half-life at 100 µM,"[4]; Subject 3, 100 μM",8.58 min
same,IC50,[5],24500 nM
same,"% IKr control (10,000 nM)","[5]; 10,000 nM, normalized to % control tail IKr",78.0%
same,time of MMC return as an index of gastric emptying,fed dogs,significantly shortened the time of MMC return
same,rate of metabolism by esterases in human plasma,[6],rapidly metabolized by esterases in human plasma
same,inhibitory activity against CYP3A4,CYP3A4,"Neither ATI-7505 nor its primary metabolite, ATI-7500 displayed significant inhibitory activity"
same,"antral and small bowel contractility, colonic motor activity","fasted, conscious dogs",dose-dependent stimulation of antral and small bowel contractility with relatively little effect on colonic motor activity
same,prokinetic effects in the dog gut,"fasted, conscious dogs",caused prokinetic effects in the dog gut
same,MMC frequency in the proximal small intestine,"fasted, conscious dogs; PO, relative to the controls",increased MMC frequency in the proximal small intestine relative to the controls
same,migrating motor complex (MMC) characteristics,"fasted, conscious dogs",minimal effect
same,frequency of giant migrating contractions (GMC),"fasted, conscious dogs; dog, in vivo",small but significant (p<0.05) increase
same,potency relative to cisapride on a mg/kg-basis,"fasted, conscious dogs; dog, in vivo",approximately twice as potent as cisapride
same,retrograde giant migrating contractions (RGC),"fasted, conscious dogs; dog, in vivo",not associated with the development of retrograde giant migrating contractions (RGC)
same,"tolerability, side effects","fasted, conscious dogs; dog, in vivo","exhibited no side effects such as diarrhea, anorexia, or weight loss"
same,Ki,5-HT4 Receptor [7],1.4 nM
same,5-HT4 receptor agonism,human 5-HT4 receptor,highly potent 5-HT4 receptor agonist
same,EC50,"human 5-HT4 receptor; Potency EC50, concentration causing 50% maximal increase in adenylyl cyclase activity, estimated, unit nM printed in b338 only",4 nM
same,EC50,"human 5-HT4 receptor; Potency pEC50, negative logarithm of the EC50",3.55 nM
same,Efficacy % of 5HT (serotonin),human 5-HT4 receptor,85%
same,EC50 fold lower than that of ATI-7500,human 5-HT4 receptor; versus ATI-7500,approximately 100 fold
same,EC50 fold lower than that of cisapride,human 5-HT4 receptor; versus cisapride,approximately 10 fold
"COc1cc(N)c(Cl)cc1C(=O)NC1CCN(CCCOc2ccc(F)cc2)CC1OC (stereo not drawn) [Cisapride, reference compound]","nH, Hill coefficient",5-HT4 Receptor [1],0.8
same,"No Observed Effect Level (NOEL), Combined Parameters",[2]; guinea pig,10 nM
same,deaths reported,[8],80
same,serious cardiac arrhythmias reportedly associated,[8],at least 341
same,inhibitory activity against 2D6,2D6,significant inhibitory activity
same,"% IKr control (10,000 nM)","[5]; human, 10000 nM",0%
same,part of a dose metabolized by oxidative N-dealkylation or aromatic hydroxylation,[9],More than 90%
same,"antral and small bowel contractility, colonic motor activity","fasted, conscious dogs",dose-dependent stimulation of antral and small bowel contractility with relatively little effect on colonic motor activity
same,prokinetic effects in the dog gut,"fasted, conscious dogs",caused prokinetic effects in the dog gut
same,migrating motor complex (MMC) characteristics,"fasted, conscious dogs",minimal effect
same,Efficacy % of 5HT (serotonin),human 5-HT4 receptor,77%
